In US7459567B2, “Substituted thienyl and furyl acylguanidines and methods of their use as beta-secretase modulators” (Wyeth, priority 2005, dated 2008):

What was measured:
[1] = molecular target: human BACE1 (Homo sapiens, UniProt P56817); test: Fluorescent kinetic assay, BACE1 inhibition (FRET peptide substrate cleavage); type: biochemical; settings: 10 nM BACE1, 25 μM substrate WABC-6, 50 mM Na-Acetate pH 4.5, room temperature
Sequence of human BACE1 (P56817 46-501): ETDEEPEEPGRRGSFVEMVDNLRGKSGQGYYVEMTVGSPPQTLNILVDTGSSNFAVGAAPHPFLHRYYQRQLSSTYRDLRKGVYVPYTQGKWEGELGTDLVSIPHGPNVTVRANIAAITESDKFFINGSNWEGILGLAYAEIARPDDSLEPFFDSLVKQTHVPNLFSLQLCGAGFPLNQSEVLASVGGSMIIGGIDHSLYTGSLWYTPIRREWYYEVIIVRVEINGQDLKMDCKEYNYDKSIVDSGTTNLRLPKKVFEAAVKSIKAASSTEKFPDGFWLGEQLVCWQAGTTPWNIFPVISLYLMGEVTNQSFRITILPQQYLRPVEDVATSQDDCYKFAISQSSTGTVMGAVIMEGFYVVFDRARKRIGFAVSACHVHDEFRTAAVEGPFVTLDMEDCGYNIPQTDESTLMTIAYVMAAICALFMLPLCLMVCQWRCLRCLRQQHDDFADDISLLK

melting point [°C] | IC50 [1] [nM] | SMILES
98 to 99 |  | CCCOc1ccc(-c2scc(-c3ccccc3Cl)c2CC(=O)N=C(N)N)cc1 [Example 1, N″-{[4-(2-Chlorophenyl)-2-(4-propoxyphenyl)thien-3-yl]acetyl}guanidine]
204 to 205.5 |  | NC(N)=NC(=O)Cc1c(-c2ccccc2)csc1-c1ccccc1 [Example 2, N″-[(2,4-Diphenylthien-3-yl)acetyl]guanidine]
116 to 118 | 2060 | NC(N)=NC(=O)Cc1c(-c2ccccc2)csc1-c1ccc(Oc2ccccc2)cc1 [Example 3, N″-{[2-(4-Phenoxyphenyl)-4-phenylthien-3-yl]acetyl}guanidine]
76 to 78 | 1600 | NC(N)=NC(=O)Cc1c(-c2ccccc2Cl)csc1-c1ccc(Oc2ccccc2)cc1 [Example 4, N″-{[4-(2-Chlorophenyl)-2-(4-phenoxyphenyl)thien-3-yl]acetyl}guanidine]
111 to 113 |  | CCCOc1ccc(-c2csc(-c3ccccc3Cl)c2CC(=O)N=C(N)N)cc1 [Example 5, N″-{[2-(2-Chlorophenyl)-4-(4-propoxyphenyl)thien-3-yl]acetyl}guanidine]
90 to 92 | 1600 | CCCOc1ccc(-c2scc(-c3ccccc3OC(F)(F)F)c2CC(=O)N=C(N)N)cc1 [Example 6, N″-({2-(4-Propoxyphenyl)-4-[2-(trifluoromethoxy)phenyl]thien-3-yl}acetyl)guanidine]
94 to 95 |  | CCCOc1ccc(-c2scc(-c3ccccc3)c2CC(=O)NC(=N)N)cc1 [Example 7, N-{[4-Phenyl-2-(4-propoxyphenyl)thien-3-yl]acetyl}guanidine]
131 to 132 |  | CCCOc1ccc(-c2csc(-c3ccccc3)c2CC(=O)N=C(N)N)cc1 [Example 8, N″-{[2-Phenyl-4-(4-propoxyphenyl)thien-3-yl]acetyl}guanidine]
117 to 118 |  | CC(=O)c1ccc(Oc2ccc(-c3scc(-c4ccccc4Cl)c3CC(=O)N=C(N)N)cc2)cc1 [Example 9, N″-{[2-[4-(4-Acetylphenoxy)phenyl]-4-(2-chlorophenyl)thien-3-yl]acetyl}guanidine]
123 to 124 | 1730 | CCC(=O)c1ccc(Oc2ccc(-c3scc(-c4ccccc4Cl)c3CC(=O)N=C(N)N)cc2)cc1 [Example 10, N″-({4-(2-Chlorophenyl)-2-[4-(4-propionylphenoxy)phenyl]thien-3-yl}acetyl)guanidine]
71 to 72 |  | NC(N)=NC(=O)Cc1c(-c2ccccc2Cl)csc1-c1ccc(OCCc2cn[nH]c2)cc1 [Example 11, 2-(4-(2-Chlorophenyl)-2-{4-[2-(1H-pyrazol-4-yl)ethoxy]phenyl}-thien-3-yl)-N-(diaminomethylene)acetamide]
49 to 50 |  | CCCOc1ccc(-c2scc(-c3ccccc3Cl)c2CC(=O)NC(=N)NCCCO)cc1 [Example 12, 2-[4-(2-Chlorophenyl)-2-(4-propoxyphenyl)thien-3-yl]-N-[[(3-hydroxypropyl)amino](imino)methyl]acetamide]
109 to 110 |  | CCC(CC)NC(=O)c1ccc(-c2scc(-c3ccccc3Cl)c2CC(=O)NC(=N)NCCCO)cc1 [Example 13, 4-[4-(2-Chlorophenyl)-3-(2-{[[(3-hydroxypropyl)amino](imino)-methyl]amino}-2-oxoethyl)thien-2-yl]-N-(1-ethylpropyl)benzamide]
103 to 105 |  | N=C(NCCCO)NC(=O)Cc1c(-c2ccccc2Cl)csc1-c1ccc(C(=O)NCC(F)(F)F)cc1 [Example 14, 4-[4-(2-Chlorophenyl)-3-(2-{[[(3-hydroxypropyl)amino](imino)-methyl]amino}-2-oxoethyl)thien-2-yl]-N-(2,2,2-trifluoroethyl)benzamide]
116 to 118 |  | CCCNC(=O)c1ccc(-c2scc(-c3ccccc3Cl)c2CC(=O)NC(=N)NCCCO)cc1 [Example 15, 4-[4-(2-Chlorophenyl)-3-(2-{[[(3-hydroxypropyl)amino](imino)-methyl]amino}-2-oxoethyl)thien-2-yl]-N-propylbenzamide]
100 to 101 |  | N=C(NCCCO)NC(=O)Cc1c(-c2ccccc2Cl)csc1-c1ccc(C(=O)NCC2CC2)cc1 [Example 16, 4-[4-(2-Chlorophenyl)-3-(2-{[[(3-hydroxypropyl)amino](imino)-methyl]amino}-2-oxoethyl)thien-2-yl]-N-(cyclopropylmethyl)benzamide]
92 to 95 |  | CCCCNC(=O)c1ccc(-c2scc(-c3ccccc3Cl)c2CC(=O)NC(=N)NCCCO)cc1 [Example 17, N-Butyl-4-[4-(2-chlorophenyl)-3-(2-{[[(3-hydroxypropyl)amino]-(imino)methyl]amino}-2-oxoethyl)thien-2-yl]benzamide]
73 to 76 |  | CCCOc1ccc(-c2scc(-c3ccccc3Cl)c2CC(=O)NC(=N)NCCCO)cc1C [Example 18, 2-[4-(2-Chlorophenyl)-2-(3-methyl-4-propoxyphenyl)thien-3-yl]-N-[[(3-hydroxypropyl)amino](imino)methyl]acetamide]
103 to 105.5 |  | CCCOc1ccc(-c2scc(-c3ccccc3Cl)c2CC(=O)NC(=N)NCCCO)c(C)c1 [Example 19, 2-[4-(2-Chlorophenyl)-2-(2-methyl-4-propoxyphenyl)thien-3-yl]-N-[[(3-hydroxypropyl)amino](imino)methyl]acetamide]
